Data as given in patent publication US20100212031A1, “Method for improving efficiencies in livestock production” (priority 2002, published 2010).
“And” between values parts separate entries of the source, which are not always exact repeats. Equal entries are not always repeated. Marks after values point to notes of the source that are not given here.

Experiments:
[1] = Test 4 / Group 3 feedlot study: body weight growth of steers by leptin (ob) genotype and drug status; type: in vivo, cattle (steers of mixed breed); settings: Drug group; for BW, lbs d 1: 1st measure; for BW, lbs d 1 / BW, lbs d 2 / BW, lbs d 3: before drug; for BW, lbs d 2: 2nd measure; for BW, lbs d 3: 3rd measure; for BW, lbs d 4: 4th measure, after drug
Protocol: (§1) In test 4, 4172 hd of animals randomized to treatment and pen were housed in 48 pens, such that a study was conducted to assess the effect of ob genotype on fat growth, body weight growth, and carcass parameters; as well as any potential interaction with the beta andrenergic agonist Zilpaterol. […] 7.89 mm in the CT animals, and 7.63 mm in CC animals; with an overall statistical genotype effect of P=0.01. […] 494.6 lbs for CT animals, and 479.5 lbs for the CC animals; with an overall statistical genotype effect of P<0.01. Also importantly, the rate of fat change over time depended on ob genotype (Table 2).
(§2) Three groups of cattle were used to evaluate the effect of leptin genotype on back fat measurements in beef cattle. Originally two groups of cattle were fed and managed with the objective of evaluating the effect of a nutritional treatment on backfat measures and were randomly assigned to dietary treatment. The third experiment was fed and managed with the objective to evaluate 1) the effect the ob gene genotype on carcass parameters, 2) the effect of ob genotype on fat growth in the live animal, and 3) any potential interaction between the beta andrenergic agonist Zilpaterol Hydrochloride and ob genotype. The original experimental design for group 1 & 2 was a randomized complete block design (RCBD) with steers being randomly assigned to block, or experimental pen, dietary treatment was included in the final statistical model detailed below. […] Group 1 was composed of 319 steers and was of mixed breed, and of either European or British descent without any representation of Bos indicus bloodlines. The breeds represented in Group 1 were Hereford, Angus, Charolais, Simmental, and Limousin. The second group included 157 Charolais cross steers. All the cattle entered the finishing period when body weight was approximately 385 kg. Group 3 was composed of 4172 steers of mixed breed, and all cattle within a block were slaughtered on a single day.
Backfat was analyzed with repeated measurements at 1, 55 and 139 days on feed for Group 1, 69, 111, and 120 days on feed for Group 2, and 1, 60, 104, and 129 days on feed for Group 3 using the MIXED procedure of SAS (Wang and Goodewardene, 2004). The following model was used: […]=μ+ρi+αj+λκ+βl+(αβ)jl+(λβ)kl+eijkl. Where Yijkl is the observation for the jth treatment ration or drug status within the ith block at the kth measurement, μ is the overall mean, ρi is the fixed effect of the ith block, aj is the fixed effect of the jth treatment ration, λk is the fixed effect of the kth measurement, βl is the fixed effect for leptin genotype (GENO) and eijkl, is the normally identical and independently distributed error term. The interaction between leptin genotype and diet, (αβ)jl, and time of measurement (λβ)kl, was also tested. A heterogeneous autoregressive-one covariance structure was utilized in analysis of backfat. Least square means and standard errors for body weight and back fat were determined using the ESTIMATE statement in PROC MIXED. The SLICE option was used to estimate least square means of GENO on days of measurements with the DIFF option being used to detect differences. Significance for the main effect of GENO and pairwise comparisons was declared at P<0.05 and trends are noted P<0.10. […] Within each group of cattle retrospective exponential models were fitted to the longitudinal measurements of back fat as described by Brethour (2000). The NLIN procedure of SAS was used to fit the nonlinear exponential function Y=Ae^(kt), where Y=projected backfat, A=the initial backfat, k=rate of increase, and t=time in days.
In test 4, 4172 hd of animals randomized to treatment and pen were housed in 48 pens, such that a study was conducted to assess the effect of ob genotype on fat growth, body weight growth, and carcass parameters; as well as any potential interaction with the beta andrenergic agonist Zilpaterol. […]

[2] = Test 4 / Group 3 feedlot study: backfat by serial ultrasound, steers by leptin (ob) genotype and drug status; type: in vivo, cattle (steers of mixed breed); settings: Drug group; for Backfat, mm d 1: 1st measure (1 days on feed); for Backfat, mm d 1 / Backfat, mm d 2 / Backfat, mm d 3: before drug; for Backfat, mm d 2: 2nd measure (60 days on feed); for Backfat, mm d 3: 3rd measure (104 days on feed); for Backfat, mm d 4: 4th measure (129 days on feed), after drug; for d to 10 mm (days needed to reach target backfat) / d to 12 mm (days needed to reach target backfat) / d to 14 mm (days needed to reach target backfat): from fitted model; for Rate (k, rate of backfat; fitted nonlinear parameter): model Y = 3.88e^kt, animal as experimental unit
Protocol: as §1, §2
Backfat was measured after 1, 55 and 139 days on feed for Group 1, 69, 111, and 120 days on feed for Group 2, and 1, 60, 104, and 129 days on feed for Group 3 using an Aloka 500V diagnostic ultrasound unit equipped with a 17.2 cm, 3.5 MHz linear array transducer (Overseas Monitor Corporation, Ltd., Richmond, B.C.) following the procedure described by Perkins et al., (1992). Internal calipers of the ultrasounds unit were used to measure back fat. Ultrasound images were recorded on a VHS tale (Panasonic AG-5200; Matsushita Electric of Canada, Mississauga, ON).
Backfat was analyzed with repeated measurements at 1, 55 and 139 days on feed for Group 1, 69, 111, and 120 days on feed for Group 2, and 1, 60, 104, and 129 days on feed for Group 3 using the MIXED procedure of SAS (Wang and Goodewardene, 2004). The following model was used: […]=μ+ρi+αj+λκ+βl+(αβ)jl+(λβ)kl+eijkl. Where Yijkl is the observation for the jth treatment ration or drug status within the ith block at the kth measurement, μ is the overall mean, ρi is the fixed effect of the ith block, aj is the fixed effect of the jth treatment ration, λk is the fixed effect of the kth measurement, βl is the fixed effect for leptin genotype (GENO) and eijkl, is the normally identical and independently distributed error term. The interaction between leptin genotype and diet, (αβ)jl, and time of measurement (λβ)kl, was also tested. A heterogeneous autoregressive-one covariance structure was utilized in analysis of backfat. Least square means and standard errors for body weight and back fat were determined using the ESTIMATE statement in PROC MIXED. The SLICE option was used to estimate least square means of GENO on days of measurements with the DIFF option being used to detect differences. Significance for the main effect of GENO and pairwise comparisons was declared at P<0.05 and trends are noted P<0.10. […]

[3] = administration of exogenous leptin; mice, chickens, pigs and sheep; cited from earlier work

## CC(C)N[C@@H]1CCn2c(=O)[nH]c3cccc(c32)[C@H]1O.Cl (racemic) [Drug, Zilpaterol Hydrochloride]
[1]; CC Genotype
  ADG, lbs/d (Average daily live bodyweight gain in pounds): 3.51 lbs/d
  BWCH, lbs: Body weight change before and after drug, difference between 3rd and 4th measure: 72.1 lbs
  BWCH, lbs: Body weight change, difference between 1st and 4th measure: 500.5 lbs
  BW, lbs d 1: 893.4 lbs
  BW, lbs d 2: 1181.1 lbs
  BW, lbs d 3: 1325.0 lbs
  BW, lbs d 4: 1394.8 lbs
[1]; CT Genotype
  ADG, lbs/d (Average daily live bodyweight gain in pounds): 3.64 lbs/d
  BWCH, lbs: Body weight change before and after drug, difference between 3rd and 4th measure: 93.8 lbs
  BWCH, lbs: Body weight change, difference between 1st and 4th measure: 518.9 lbs
  BW, lbs d 1: 890.3 lbs
  BW, lbs d 2: 1197.3 lbs
  BW, lbs d 3: 1317.1 lbs
  BW, lbs d 4: 1407.6 lbs
[1]; TT Genotype
  ADG, lbs/d (Average daily live bodyweight gain in pounds): 3.60 lbs/d
  BWCH, lbs: Body weight change before and after drug, difference between 3rd and 4th measure: 75.8 lbs
  BWCH, lbs: Body weight change, difference between 1st and 4th measure: 512.4 lbs
  BW, lbs d 1: 890.6 lbs
  BW, lbs d 2: 1191.9 lbs
  BW, lbs d 3: 1330.0 lbs
  BW, lbs d 4: 1399.0 lbs
[2]; CC Genotype
  AFG, mm/d (Average Daily fat gain in millimeters): 0.051 mm/d
  Fat CH, mm: Backfat change before and after drug, difference between 3rd and 4th measure: 1.24 mm
  Fat CH, mm: Backfat change, difference between 1st and 4th measure: 7.30 mm
  Rate, 10-12: 0.0071
  Backfat, mm d 1: 3.46 mm
  Backfat, mm d 2: 7.44 mm
  Backfat, mm d 3: 9.60 mm
  Backfat, mm d 4: 10.7 mm
  d to 10 mm (days needed to reach target backfat): 144 days
  d to 12 mm (days needed to reach target backfat): 170 days
  d to 14 mm (days needed to reach target backfat): 192 days
  Rate (k, rate of backfat; fitted nonlinear parameter): 0.0069^a
[2]; CT Genotype
  AFG, mm/d (Average Daily fat gain in millimeters): 0.053 mm/d
  Fat CH, mm: Backfat change before and after drug, difference between 3rd and 4th measure: 1.35 mm
  Fat CH, mm: Backfat change, difference between 1st and 4th measure: 7.56 mm
  Rate, 10-12: 0.0072
  Backfat, mm d 1: 3.50 mm
  Backfat, mm d 2: 7.74 mm
  Backfat, mm d 3: 9.77 mm
  Backfat, mm d 4: 11.0 mm
  d to 10 mm (days needed to reach target backfat): 135 days
  d to 12 mm (days needed to reach target backfat): 160 days
  d to 14 mm (days needed to reach target backfat): 182 days
[2]; CT Genotype, Hydrochloride
  Rate (k, rate of backfat; fitted nonlinear parameter): 0.0077^1 and 0.0071^1
[2]; TT Genotype
  AFG, mm/d (Average Daily fat gain in millimeters): 0.054 mm/d
  Fat CH, mm: Backfat change before and after drug, difference between 3rd and 4th measure: 1.17 mm
  Fat CH, mm: Backfat change, difference between 1st and 4th measure: 7.71 mm
  Rate, 10-12: 0.0073
  Backfat, mm d 1: 3.62 mm
  Backfat, mm d 2: 7.98 mm
  Backfat, mm d 3: 10.26 mm
  Backfat, mm d 4: 11.3 mm
  d to 10 mm (days needed to reach target backfat): 126 days
  d to 12 mm (days needed to reach target backfat): 151 days
  d to 14 mm (days needed to reach target backfat): 173 days
  Rate (k, rate of backfat; fitted nonlinear parameter): 0.0075^bc

## leptin: 16-kDa adipocyte-specific polypeptide encoded by the ob (obese) gene
[3]
  body mass: dramatically reduces
  feed intake: dramatically reduces
